The record followed here is ChEMBL document CHEMBL4190370, “Emerging New Targets for the Treatment of Resistant Fungal Infections” (J Med Chem, 2018).

≈ marks a conversion by molar mass, not a printed value.

Data set [1] relates to Candida. Kind of data set: Antifungal activity against Candida. It is filed as functional.
Data set [2] relates to Candida. Kind of data set: Antifungal activity against Candida sp. It is filed as functional.
In data set [3] the test system is Candida albicans. Kind of data set: Antifungal activity against fluconazole-susceptable Candida albicans isolate 1 after 24 hrs by microdilution method. The format is functional. To be noted: isolate 1, 24 h. On the technique in general: In broth dilution the organism is exposed to a series of concentrations in liquid medium.
Data set [4] has as its system Candida albicans. Kind of data set: Antifungal activity against fluconazole-susceptable Candida albicans isolate 13 after 24 hrs by microdilution method. It is filed as functional. Particulars: isolate 13, 24 h.
Data set [5] concerns Candida albicans. Kind of data set: Antifungal activity against fluconazole-susceptable Candida albicans isolate 10 after 24 hrs by microdilution method. The format is functional. Particulars: isolate 10, 24 h.
Data set [6] deals with Candida albicans. The data set is described as follows: Antifungal activity against fluconazole-resistant Candida albicans isolate 16 after 24 hrs by microdilution method. The format is functional. To be noted: isolate 16, 24 h.
Data set [7] concerns Candida albicans. The data set is described as follows: Antifungal activity against fluconazole-susceptable Candida albicans isolate 12 after 24 hrs by microdilution method. Particulars: isolate 12, 24 h. The format is functional.
The subject of data set [8] is Candida albicans. The data set is described as follows: Antifungal activity against fluconazole-susceptable Candida albicans isolate 9 after 24 hrs by microdilution method. It is filed as functional. To be noted: isolate 9, 24 h.
Data set [9] concerns Candida albicans. Kind of data set: Antifungal activity against fluconazole-susceptable Candida albicans isolate 15 after 24 hrs by microdilution method. It is filed as functional. Particulars: isolate 15, 24 h.
The subject of data set [10] is Candida albicans. The data set is described as follows: Antifungal activity against fluconazole-susceptable Candida albicans isolate 4 after 24 hrs by microdilution method. The format is functional. To be noted: isolate 4, 24 h.
Data set [11] has as its system Candida albicans. The data set is described as follows: Antifungal activity against fluconazole-resistant Candida albicans isolate 17 after 24 hrs by microdilution method. The format is functional. To be noted: isolate 17, 24 h.
Data set [12] concerns Candida albicans. Kind of data set: Antifungal activity against fluconazole-susceptable Candida albicans isolate 6 after 24 hrs by microdilution method. It is filed as functional. To be noted: isolate 6, 24 h.
Data set [13] deals with Candida albicans. Kind of data set: Antifungal activity against fluconazole-susceptable Candida albicans isolate 3 after 24 hrs by microdilution method. It is filed as functional. To be noted: isolate 3, 24 h.
The test system of data set [14] is Candida albicans. Kind of data set: Antifungal activity against fluconazole-susceptable Candida albicans isolate 11 after 24 hrs by microdilution method. To be noted: isolate 11, 24 h. It is filed as functional.
For data set [15], the system named is Candida albicans. The data set is described as follows: Antifungal activity against fluconazole-susceptable Candida albicans isolate 5 after 24 hrs by microdilution method. The format is functional. To be noted: isolate 5, 24 h.
For data set [16], the system named is Candida albicans. The data set is described as follows: Antifungal activity against fluconazole-susceptable Candida albicans isolate 7 after 24 hrs by microdilution method. It is filed as functional. To be noted: isolate 7, 24 h.
In data set [17] the test system is Candida albicans. Kind of data set: Antifungal activity against fluconazole-susceptable Candida albicans isolate 14 after 24 hrs by microdilution method. It is filed as functional. To be noted: isolate 14, 24 h.
The subject of data set [18] is Candida albicans. The data set is described as follows: Antifungal activity against fluconazole-susceptable Candida albicans isolate 8 after 24 hrs by microdilution method. The format is functional. Particulars: isolate 8, 24 h.
Data set [19] has as its system Candida albicans. The data set is described as follows: Antifungal activity against fluconazole-susceptable Candida albicans isolate 2 after 24 hrs by microdilution method. The format is functional. Particulars: isolate 2, 24 h.
In data set [20] the test system is HepG2. Kind of data set: Cytotoxicity in human HepG2 cells. It is filed as cell-based.
The target of data set [21] is T1, Mediator of RNA polymerase II transcription subunit 15 (Candida glabrata (strain ATCC 2001 / CBS 138 / JCM 3761 / NBRC 0622 /NRRL Y-65) (Yeast) (Torulopsis glabrata), UniProt Q6FRS9).
T1 sequence (Q6FRS9 whole entry): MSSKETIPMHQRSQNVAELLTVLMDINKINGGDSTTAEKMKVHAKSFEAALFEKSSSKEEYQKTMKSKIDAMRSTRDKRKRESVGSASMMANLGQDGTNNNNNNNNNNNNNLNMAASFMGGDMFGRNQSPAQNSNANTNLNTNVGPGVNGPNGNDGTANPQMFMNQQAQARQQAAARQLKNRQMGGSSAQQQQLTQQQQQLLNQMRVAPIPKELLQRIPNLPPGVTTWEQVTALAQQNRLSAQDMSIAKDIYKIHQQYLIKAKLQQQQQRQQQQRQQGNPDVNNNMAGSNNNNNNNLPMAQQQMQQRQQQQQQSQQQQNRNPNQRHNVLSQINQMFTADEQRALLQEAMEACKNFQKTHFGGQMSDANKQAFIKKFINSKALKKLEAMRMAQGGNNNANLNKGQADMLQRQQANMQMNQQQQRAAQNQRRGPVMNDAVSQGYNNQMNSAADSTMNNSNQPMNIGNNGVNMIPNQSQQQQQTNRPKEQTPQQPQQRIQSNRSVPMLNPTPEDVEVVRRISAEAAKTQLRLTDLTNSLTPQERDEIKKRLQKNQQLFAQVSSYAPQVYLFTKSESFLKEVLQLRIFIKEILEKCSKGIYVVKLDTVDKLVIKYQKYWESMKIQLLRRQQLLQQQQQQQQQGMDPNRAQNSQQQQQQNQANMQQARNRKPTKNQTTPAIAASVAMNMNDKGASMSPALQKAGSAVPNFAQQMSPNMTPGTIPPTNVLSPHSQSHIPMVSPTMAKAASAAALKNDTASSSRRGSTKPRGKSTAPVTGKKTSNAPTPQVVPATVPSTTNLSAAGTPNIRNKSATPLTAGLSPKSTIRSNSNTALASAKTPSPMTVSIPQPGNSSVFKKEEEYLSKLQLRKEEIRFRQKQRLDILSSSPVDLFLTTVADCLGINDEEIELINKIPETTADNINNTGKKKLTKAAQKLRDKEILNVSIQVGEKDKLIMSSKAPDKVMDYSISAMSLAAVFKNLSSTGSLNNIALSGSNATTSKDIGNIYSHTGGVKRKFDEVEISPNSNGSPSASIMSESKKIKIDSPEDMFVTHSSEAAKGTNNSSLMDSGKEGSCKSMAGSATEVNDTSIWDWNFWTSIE
Kind of data set: Binding affinity to Candida glabrata Gal11A KIX domain. On the set-up: species or system Nakaseomyces glabratus.

Data set [22] can be described thus: Half life in human. To be noted: in vivo. It is filed as ADME, organism-based.
A short description of data set [23]: Inhibition of Saccharomyces cerevisiae IleRS.
The nature of data set [24]: Oral bioavailability in rabbit. The format is ADME, organism-based, Oryctolagus cuniculus. To be noted: in vivo.
A short description of data set [25]: Oral bioavailability in rat. The format is ADME, organism-based. Particulars: in vivo.
Data set [26] in a line: Oral bioavailability in dog. It is filed as ADME, organism-based, Canis lupus familiaris. Particulars: in vivo.
For data set [27], the system named is Cryptococcus neoformans. Kind of data set: Antifungal activity against Cryptococcus neoformans. It is filed as functional.
The subject of data set [28] is Aspergillus fumigatus. The data set is described as follows: Antifungal activity against Aspergillus fumigatus. The format is functional.
Data set [29] relates to Candida albicans. Kind of data set: Antifungal activity against Candida albicans. The format is functional.
Data set [30] concerns Candida albicans. The data set is described as follows: Antifungal activity against Candida albicans infected in rat model of systemic candidiasis. It is filed as functional, organism-based.
The nature of data set [31]: Inhibition of Saccharomyces cerevisiae LeuRs.

Usually MIC stands for the lowest concentration that inhibits growth of the organism. As a reminder, the MIC80 is the lowest concentration that inhibits either 80% of growth or 80% of the strains tested, depending on the study. A word on the IC50: it is the midpoint of a concentration-inhibition curve. Read a low IC50 as greater potency in that assay. Broadly, the Kd is the constant that tells how readily two partners part at equilibrium. Higher therefore signals a looser complex. Usually half-life stands for the time in which the quantity being followed falls by half. The low end stands for fast loss, the high end for slow loss. A word on the Ki: it is a dissociation constant, usually derived from enzyme kinetics or from competition with a known ligand. Lower therefore signals tighter binding. By bioavailability is commonly meant dose-corrected exposure relative to a reference, in per cent. Low values mean little systemic uptake, high ones much systemic uptake. Broadly, the MIC90 is an inhibitory concentration at the 90% level, which refers to growth in some studies and to a panel of isolates in others.

With `CN(C)c1ccc(/C=C/c2cc(C(C)(C)C)[o+]c(C(C)(C)C)c2)cc1.[O-][Cl+3]([O-])([O-])[O-]`, the figures for the MIC in [1] and in data set [2] were 0.2 to 6.25 µg/mL and 0.5 to 1 µg/mL, respectively.
As for `COc1ccc2cc1Oc1ccc(cc1)C[C@@H]1c3cc(c(OC)cc3CCN1C)Oc1c(OC)c(OC)cc3c1[C@H](C2)N(C)CC3` [ISOTETRANDRINE], the MIC80 in data set [3], in data set [4], in data set [5], in data set [6], in [7] and in data set [8] was 64 µg/mL (≈ 103 µM) throughout. Further, the MIC80 in [9], in data set [10], in data set [11], in data set [12], in data set [13] and in data set [14] was 64 µg/mL (≈ 103 µM) throughout. In addition, the MIC80 in [15], in data set [16], in data set [17], in data set [18] and in data set [19] was 64 µg/mL (≈ 103 µM) throughout.
In turn, `N#CCC(=O)NNC(=S)Nc1ccc(Cl)c(Cl)c1` displayed an IC50 in [20] of 100 µM. The compound further gave a Kd in data set [21] of 0.32 µM.
Take `C=C1C[C@H](N)[C@H](C(=O)O)C1` [ICOFUNGIPEN]: the half-life in data set [22] was 7 h. Also, in [23], the Ki turned out to be 1000 µM. In addition, the bioavailability in [24], in data set [25] and in data set [26] was 100% each time.
Compound `Cc1c(COc2ccc(F)c(F)c2F)oc2cccc(OCCCNCc3cccnc3)c12` gave an MIC90 in data set [27] of 3.13 µg/mL (≈ 6.86 µM). The MIC in data set [28] is 25 µg/mL (≈ 54.8 µM); in data set [29], 0.05 µg/mL (≈ 0.11 µM). In [30], this compound registered an EC50 of 7.1 mg/kg.
`OB1OCc2cc(F)ccc21` [TAVABOROLE]: the IC50 in data set [31] amounted to 2.1 µM.
